Data taken from patent US11124554B2, “Modified ligand-gated ion channels and methods of use” (Howard Hughes Medical Institute, priority 2016, dated 2021).
Where two headings read alike, the source gives them in different places.

Assays:
α7^L131G-5HT3 HC = target: T1, α7^L131G-5HT3 HC (Homo sapiens, UniProt P36544, L131G, form not given); assay: Agonist potency at chimeric channel (Table 9); format: cell-based; conditions: read-out: Agonist potency
T1 construct: rows headed: Agonist potency; other: α75HT3 L131G HC; α75HT3 L131G HC; fused on or other part: 5-HT3A receptor ion pore domain at the C-terminus
T1 sequence (P36544 23-224 L131G limits assumed, form open): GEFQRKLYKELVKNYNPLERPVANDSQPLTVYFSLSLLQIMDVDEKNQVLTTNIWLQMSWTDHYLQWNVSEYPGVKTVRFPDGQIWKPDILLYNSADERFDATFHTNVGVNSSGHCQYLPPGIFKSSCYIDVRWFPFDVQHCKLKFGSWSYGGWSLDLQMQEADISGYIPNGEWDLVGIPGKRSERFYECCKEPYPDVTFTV

α7^L131Q-GlyR = target: T2, α7^L131Q-GlyR (Homo sapiens, UniProt P36544, L131Q); assay: Agonist potency at chimeric channel (Table 9); format: cell-based
T2 construct: expressed in transfected cells
T2 sequence (P36544 with tags, fused parts or gaps L131Q): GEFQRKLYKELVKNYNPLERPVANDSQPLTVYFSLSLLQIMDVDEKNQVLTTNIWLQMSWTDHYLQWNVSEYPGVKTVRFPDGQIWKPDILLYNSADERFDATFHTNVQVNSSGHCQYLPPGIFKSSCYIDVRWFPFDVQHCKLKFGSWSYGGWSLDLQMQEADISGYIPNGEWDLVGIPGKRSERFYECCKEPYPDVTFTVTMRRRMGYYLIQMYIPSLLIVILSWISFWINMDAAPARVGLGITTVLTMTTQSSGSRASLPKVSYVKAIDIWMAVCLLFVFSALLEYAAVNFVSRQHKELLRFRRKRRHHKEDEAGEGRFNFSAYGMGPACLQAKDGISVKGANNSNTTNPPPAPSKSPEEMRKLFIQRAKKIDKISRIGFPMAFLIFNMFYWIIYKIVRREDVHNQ

α7^L131M-GlyR = target: T3, α7^L131M-GlyR (Homo sapiens, UniProt P36544, L131M); assay: Agonist potency at chimeric channel (Table 9); format: cell-based
T3 construct: expressed in transfected cells
T3 sequence (P36544 with tags, fused parts or gaps L131M): as the sequence (P36544 with tags, fused parts or gaps L131Q) above, with Q109M counted along it

α7^W77F,G175K,Y210F-GlyR = target: T4, α7^W77F,G175K,Y210F-GlyR (Homo sapiens, UniProt P36544, G175K/W77F/Y210F); assay: Agonist potency at chimeric channel; format: cell-based
T4 construct: expressed in transfected cells
T4 sequence (P36544 with tags, fused parts or gaps W77F/G175K/Y210F): as the sequence (P36544 with tags, fused parts or gaps L131Q) above, with W55F, Q109L, G153K, Y188F counted along it

[1] = target: T5, α7GlyR Q79G Y115F G175K Y210F (Homo sapiens, UniProt P36544, G175K/Q79G/Y115F/Y210F); assay: Agonist potency at chimeric channel; format: cell-based
T5 construct: expressed in transfected cells
T5 sequence (P36544 with tags, fused parts or gaps Q79G/Y115F/G175K/Y210F): as the sequence (P36544 with tags, fused parts or gaps L131Q) above, with Q57G, Y93F, Q109L, G153K, Y188F counted along it

α7^Y115F,G175K-GlyR = target: T6, α7^Y115F,G175K-GlyR (Homo sapiens, UniProt P36544, G175K/Y115F); assay: Agonist potency at chimeric channel; format: cell-based
T6 construct: expressed in transfected cells
T6 sequence (P36544 with tags, fused parts or gaps Y115F/G175K): as the sequence (P36544 with tags, fused parts or gaps L131Q) above, with Y93F, Q109L, G153K counted along it

α7^Q79G,Y115F,G175K-GlyR = target: T7, α7^Q79G,Y115F,G175K-GlyR (Homo sapiens, UniProt P36544, G175K/Q79G/Y115F); assay: Agonist potency at chimeric channel; format: cell-based
T7 construct: expressed in transfected cells
T7 sequence (P36544 with tags, fused parts or gaps Q79G/Y115F/G175K): as the sequence (P36544 with tags, fused parts or gaps L131Q) above, with Q57G, Y93F, Q109L, G153K counted along it

α7^Q79G,G175K-GlyR = target: T8, α7^Q79G,G175K-GlyR (Homo sapiens, UniProt P36544, G175K/Q79G); assay: Agonist potency at chimeric channel; format: cell-based
T8 construct: expressed in transfected cells
T8 sequence (P36544 with tags, fused parts or gaps Q79G/G175K): as the sequence (P36544 with tags, fused parts or gaps L131Q) above, with Q57G, Q109L, G153K counted along it

α7-5HT3 = target: T9, α7-5HT3 (Homo sapiens, UniProt P36544, M226I/T225I); assay: Agonist potency (EC50), HEK cells expressing chimeric channel; format: cell-based, human α7 nAChR LBD, murine 5HT3 IPD
T9 construct: expressed in transfected cells; host or cells: HEK cells
T9 sequence (P36544 with tags, fused parts or gaps T225I/M226I): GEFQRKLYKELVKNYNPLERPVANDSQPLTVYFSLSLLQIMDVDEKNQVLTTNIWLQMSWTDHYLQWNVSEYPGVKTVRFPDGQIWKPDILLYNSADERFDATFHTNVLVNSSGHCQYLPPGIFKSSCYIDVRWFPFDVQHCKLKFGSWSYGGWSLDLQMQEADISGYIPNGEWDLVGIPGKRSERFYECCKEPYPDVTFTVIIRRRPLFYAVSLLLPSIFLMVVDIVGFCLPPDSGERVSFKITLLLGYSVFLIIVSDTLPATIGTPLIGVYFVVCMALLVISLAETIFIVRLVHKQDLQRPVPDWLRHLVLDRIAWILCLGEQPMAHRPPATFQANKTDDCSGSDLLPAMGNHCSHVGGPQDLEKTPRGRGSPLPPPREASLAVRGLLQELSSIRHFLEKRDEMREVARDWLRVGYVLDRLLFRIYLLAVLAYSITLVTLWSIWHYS

α7^Q79G-GlyR = target: T10, α7^Q79G-GlyR (Homo sapiens, UniProt P36544, Q79G); assay: as above; format: cell-based
T10 construct: expressed in transfected cells; host or cells: HEK cells
T10 sequence (P36544 with tags, fused parts or gaps Q79G): as the sequence (P36544 with tags, fused parts or gaps L131Q) above, with Q57G, Q109L counted along it

α7GlyR L131G D219A = target: T11, α7GlyR L131G D219A (Homo sapiens, UniProt P36544, D219A/L131G); assay: Agonist potency at chimeric channel (Table 9); format: cell-based
T11 construct: expressed in transfected cells
T11 sequence (P36544 with tags, fused parts or gaps L131G/D219A): as the sequence (P36544 with tags, fused parts or gaps L131Q) above, with Q109G, D197A counted along it

α7^G175K-GlyR = target: T12, α7^G175K-GlyR (Homo sapiens, UniProt P36544, G175K); assay: Agonist potency at chimeric channel; format: cell-based
T12 construct: expressed in transfected cells
T12 sequence (P36544 with tags, fused parts or gaps G175K): as the sequence (P36544 with tags, fused parts or gaps L131Q) above, with Q109L, G153K counted along it

α7^Q79G,Q139L,G175K-GlyR = target: T13, α7^Q79G,Q139L,G175K-GlyR (Homo sapiens, UniProt P36544, G175K/Q139L/Q79G); assay: Agonist potency at chimeric channel; format: cell-based
T13 construct: expressed in transfected cells
T13 sequence (P36544 with tags, fused parts or gaps Q79G/Q139L/G175K): as the sequence (P36544 with tags, fused parts or gaps L131Q) above, with Q57G, Q109L, Q117L, G153K counted along it

α7^Q79S,L131G-GlyR = target: T14, α7^Q79S,L131G-GlyR (Homo sapiens, UniProt P36544, L131G/Q79S); assay: Agonist potency at chimeric channel (Table 9); format: cell-based
T14 construct: expressed in transfected cells
T14 sequence (P36544 with tags, fused parts or gaps Q79S/L131G): as the sequence (P36544 with tags, fused parts or gaps L131Q) above, with Q57S, Q109G counted along it

α7^L131G,Q139L-GlyR = target: T15, α7^L131G,Q139L-GlyR (Homo sapiens, UniProt P36544, L131G/Q139L); assay: Agonist potency at chimeric channel (Table 9); format: cell-based
T15 construct: expressed in transfected cells
T15 sequence (P36544 with tags, fused parts or gaps L131G/Q139L): as the sequence (P36544 with tags, fused parts or gaps L131Q) above, with Q109G, Q117L counted along it

α7^W77F,Q79G,G175K-GlyR = target: T16, α7^W77F,Q79G,G175K-GlyR (Homo sapiens, UniProt P36544, G175K/Q79G/W77F); assay: Agonist potency at chimeric channel; format: cell-based
T16 construct: expressed in transfected cells
T16 sequence (P36544 with tags, fused parts or gaps W77F/Q79G/G175K): as the sequence (P36544 with tags, fused parts or gaps L131Q) above, with W55F, Q57G, Q109L, G153K counted along it

α7^Q79S-GlyR = target: T17, α7^Q79S-GlyR (Homo sapiens, UniProt P36544, Q79S); assay: Agonist potency (EC50), HEK cells expressing chimeric channel; format: cell-based
T17 construct: expressed in transfected cells; host or cells: HEK cells
T17 sequence (P36544 with tags, fused parts or gaps Q79S): as the sequence (P36544 with tags, fused parts or gaps L131Q) above, with Q57S, Q109L counted along it

α7^L131V-GlyR = target: T18, α7^L131V-GlyR (Homo sapiens, UniProt P36544, L131V); assay: Agonist potency at chimeric channel (Table 9); format: cell-based
T18 construct: expressed in transfected cells
T18 sequence (P36544 with tags, fused parts or gaps L131V): as the sequence (P36544 with tags, fused parts or gaps L131Q) above, with Q109V counted along it

α7^G175K,Y210F-GlyR = target: T19, α7^G175K,Y210F-GlyR (Homo sapiens, UniProt P36544, G175K/Y210F); assay: Agonist potency at chimeric channel; format: cell-based
T19 construct: expressed in transfected cells
T19 sequence (P36544 with tags, fused parts or gaps G175K/Y210F): as the sequence (P36544 with tags, fused parts or gaps L131Q) above, with Q109L, G153K, Y188F counted along it

α7^L131G-GlyR = target: T20, α7^L131G-GlyR (Homo sapiens, UniProt P36544, L131G); assay: Agonist potency at chimeric channel (Table 9); format: cell-based
T20 construct: expressed in transfected cells
T20 sequence (P36544 with tags, fused parts or gaps L131G): as the sequence (P36544 with tags, fused parts or gaps L131Q) above, with Q109G counted along it

[2] = target: T21, α7^L141F,Y115F,G175K-GlyR (Homo sapiens, UniProt P36544, G175K/L141F/Y115F); assay: Agonist potency at chimeric channel; format: cell-based
T21 construct: expressed in transfected cells
T21 sequence (P36544 with tags, fused parts or gaps Y115F/L141F/G175K): as the sequence (P36544 with tags, fused parts or gaps L131Q) above, with Y93F, Q109L, L119F, G153K counted along it

α7^Q79A-5HT3 = target: T22, α7^Q79A-5HT3 (Homo sapiens, UniProt P36544, M226I/Q79A/T225I); assay: Agonist potency (EC50), HEK cells expressing chimeric channel; format: cell-based, human α7 nAChR LBD, murine 5HT3 IPD; conditions: read-out: Mean EC50, α7^Q79A-5HT3
T22 construct: expressed in transfected cells; host or cells: HEK cells
T22 sequence (P36544 with tags, fused parts or gaps Q79A/T225I/M226I): as the sequence (P36544 with tags, fused parts or gaps T225I/M226I) above, with Q57A counted along it

α7^L131F-GlyR = target: T23, α7^L131F-GlyR (Homo sapiens, UniProt P36544, L131F); assay: Agonist potency at chimeric channel (Table 9); format: cell-based
T23 construct: expressed in transfected cells
T23 sequence (P36544 with tags, fused parts or gaps L131F): as the sequence (P36544 with tags, fused parts or gaps L131Q) above, with Q109F counted along it

[3] = test system: α7GlyR chimeric channels with G175K and A298G mutations; format: cell-based, human
α7^L131A-GlyR = target: T24, α7^L131A-GlyR (Homo sapiens, UniProt P36544, L131A); assay: Agonist potency at chimeric channel (Table 9); format: cell-based
T24 construct: expressed in transfected cells
T24 sequence (P36544 with tags, fused parts or gaps L131A): as the sequence (P36544 with tags, fused parts or gaps L131Q) above, with Q109A counted along it

α7^Q79S-5HT3 = target: T25, α7^Q79S-5HT3 (Homo sapiens, UniProt P36544, M226I/Q79S/T225I); assay: Agonist potency (EC50), HEK cells expressing chimeric channel; format: cell-based, human α7 nAChR LBD, murine 5HT3 IPD; conditions: read-out: Mean EC50, α7^Q79S-5HT3
T25 construct: expressed in transfected cells; host or cells: HEK cells
T25 sequence (P36544 with tags, fused parts or gaps Q79S/T225I/M226I): as the sequence (P36544 with tags, fused parts or gaps T225I/M226I) above, with Q57S counted along it

[4] = target: T26, α7GlyR R27D E41R Q79G Y115F (Homo sapiens, UniProt P36544, E41R/Q79G/R27D/Y115F); assay: Agonist potency at chimeric channel (Table 7); format: cell-based
T26 construct: expressed in transfected cells
T26 sequence (P36544 with tags, fused parts or gaps R27D/E41R/Q79G/Y115F): as the sequence (P36544 with tags, fused parts or gaps L131Q) above, with R5D, E19R, Q57G, Y93F, Q109L counted along it

α7^L131G,Y217F-GlyR = target: T27, α7^L131G,Y217F-GlyR (Homo sapiens, UniProt P36544, L131G/Y217F); assay: Agonist potency at chimeric channel (Table 9); format: cell-based
T27 construct: expressed in transfected cells
T27 sequence (P36544 with tags, fused parts or gaps L131G/Y217F): as the sequence (P36544 with tags, fused parts or gaps L131Q) above, with Q109G, Y195F counted along it

α7^P216I-GlyR = target: T28, α7^P216I-GlyR (Homo sapiens, UniProt P36544, P216I); assay: Agonist potency at chimeric channel; format: cell-based
T28 construct: expressed in transfected cells
T28 sequence (P36544 with tags, fused parts or gaps P216I): as the sequence (P36544 with tags, fused parts or gaps L131Q) above, with Q109L, P194I counted along it

[5] = read-out: Agonist potency; α7GlyR Q79G A298G G175K Y115F
[6] = read-out: Agonist potency; α7GlyR Q79G A298G P2161
[7] = read-out: Agonist potency; α7GlyR Q79G A298G Y115F K395 K396A
[8] = read-out: Agonist potency; α7GlyR Q79G G175K A298G
[9] = read-out: Agonist potency; α7GlyR Q79G W77F A298G

Row | SMILES | EC50 (α7^L131Q-GlyR) | EC50 (α7^L131M-GlyR) | EC50 (α7^W77F,G175K,Y210F-GlyR) | EC50 [1] | EC50 (α7^Y115F,G175K-GlyR) | EC50 (α7^Q79G,Y115F,G175K-GlyR) | EC50 (α7^Q79G,G175K-GlyR) | EC50 (α7^Q79G-GlyR) | EC50 (α7GlyR L131G D219A) | EC50 (α7^G175K-GlyR) | EC50 (α7^Q79G,Q139L,G175K-GlyR) | EC50 (α7^Q79S,L131G-GlyR) | EC50 (α7^L131G,Q139L-GlyR) | EC50 (α7^W77F,Q79G,G175K-GlyR) | EC50 (α7^Q79S-GlyR) | EC50 (α7^L131V-GlyR) | EC50 (α7^G175K,Y210F-GlyR) | EC50 (α7^L131G-GlyR) | EC50 [2] | EC50 (α7^L131A-GlyR) | also measured
1 | O=c1cccc2n1C[C@@H]1CNC[C@H]2C1 [Cytisine] | > 30000 nM | 7000 nM | 5100 nM | > 30000 nM | 7100 nM | > 10000 nM | 2500 nM | 5600 nM | > 30000 nM | 400 nM | 3240 nM | 8100 nM | 12000 nM | 6900 nM | 2500 nM | 4300 nM | > 10000 nM | 13100 nM | 4740 nM | 20600 nM | EC50 (α7^L131G-5HT3 HC): 11000 nM; EC50 (α7-5HT3; read-out: Mean EC50, α7-5HT3): 8200 nM; EC50 (α7^Q79A-5HT3): 4000 nM; EC50 (α7^L131F-GlyR): 10500 nM; EC50 [3, 5]: 4600 nM; EC50 [3, 6]: 5500 nM; EC50 [3, 7]: > 30000 nM; EC50 [3, 8]: 134 nM; EC50 [3, 9]: 14100 nM; EC50 (α7^Q79S-5HT3): 4400 nM; EC50 [4]: > 30000 nM; EC50 (α7^L131G,Y217F-GlyR): 30000 nM
2 | Clc1ccc(C2CC3CCC2N3)cn1 (centres unmarked) [Epibatidine] | 27 nM | 42 nM | 380 nM | > 10000 nM | 36 nM | 220 nM | 37 nM | 69 nM | 160 nM | 5 nM | 144 nM | 7 nM | 12 nM | 2600 nM | 24 nM | 210 nM | 650 nM | 9 nM | 144 nM | 27 nM | EC50 (α7^L131G-5HT3 HC; α75HT3 L131G HC): 9 nM; EC50 (α7-5HT3; read-out: Mean EC50, α7-5HT3, HEK cells, Table 1): 53 nM; EC50 (α7^Q79A-5HT3; HEK cells, Table 1): 67 nM; EC50 (α7^P216I-GlyR): 30 nM; EC50 ([3]; α7GlyR Q79G A298G G175K Y115F; read-out: Agonist potency): 11 nM; EC50 ([3]; α7GlyR Q79G A298G P2161; read-out: Agonist potency): 50 nM; EC50 ([3]; α7GlyR Q79G A298G Y115F K395 K396A; read-out: Agonist potency): 150 nM; EC50 ([3]; α7GlyR Q79G G175K A298G; read-out: Agonist potency): 2.3 nM; EC50 ([3]; α7GlyR Q79G W77F A298G; read-out: Agonist potency): 370 nM; EC50 (α7^Q79S-5HT3; HEK cells, Table 1): 44 nM; EC50 [4]: 267 nM; EC50 (α7^L131G,Y217F-GlyR): 15 nM
3 | O=C(NC1CN2CCC1CC2)c1ccc(Cl)cc1 (centres unmarked) [PNU-282987] | 48 nM | 21 nM | > 40000 nM | > 1000 nM | 100 nM | 80 nM | 60 nM | 26 nM | 410 nM | 5 nM | 50 nM | 6 nM | 63 nM | 500 nM | 14 nM | 64 nM | 700 nM | 34 nM | 510 nM | 55 nM | EC50 (α7^L131G-5HT3 HC): 33 nM; EC50 (α7-5HT3; read-out: Mean EC50, α7-5HT3): 220 nM; EC50 (α7-5HT3; read-out: α7-5HT3 EC50): 220 nM; EC50 (α7^Q79A-5HT3): 37 nM; EC50 (α7^L131F-GlyR): 200 nM; EC50 (α7^P216I-GlyR): 40 nM; EC50 [3, 5]: 9 nM; EC50 [3, 6]: 250 nM; EC50 [3, 7]: 110 nM; EC50 [3, 8]: 0.36 nM; EC50 [3, 9]: 1630 nM; EC50 (α7^Q79S-5HT3): 23 nM; EC50 [4]: 340 nM; EC50 (α7^L131G,Y217F-GlyR): 54 nM
